These results are taken from patent US5670501A, “N-substituted 9-alkyladenines” (Discovery Therapeutics, Inc., priority 1994, dated 1997).

For test [1], the target named is T1, adenosine A1 receptor (Bos taurus, UniProt P28190).
T1 construct: were homogenized with a Brinkman polytron and the membranes were collected by centrifugation; from tissue; host or cells: bovine caudate membranes
T1 sequence (P28190 1-326): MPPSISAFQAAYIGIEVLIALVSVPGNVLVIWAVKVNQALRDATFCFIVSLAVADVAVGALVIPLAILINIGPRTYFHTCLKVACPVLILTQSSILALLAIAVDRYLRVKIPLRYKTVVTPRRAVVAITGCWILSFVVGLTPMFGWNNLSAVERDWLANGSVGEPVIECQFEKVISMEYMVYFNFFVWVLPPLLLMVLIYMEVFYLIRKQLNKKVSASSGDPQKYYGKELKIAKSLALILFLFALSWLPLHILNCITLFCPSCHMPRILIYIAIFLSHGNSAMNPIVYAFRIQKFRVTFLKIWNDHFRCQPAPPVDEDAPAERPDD
Description: Receptor affinity (radioligand binding), A1, [3H]CHA. Further details: species or system bovine. Conditions: for Selectivity Ratio (A2 Ki /A1 Ki): radioligand binding; for Ki: [3H]CHA, room temperature, 2 hours, tissues listed: bovine caudate, guinea pig cortex, guinea pig striatum (only Example 13 marked guinea pig). The method, then: (§1) 1. Receptor Affinity Experiments (Radioligand Binding)
(§2) Tissues (bovine caudate, guinea pig cortex, guinea pig striatum) were homogenized with a Brinkman polytron and the membranes were collected by centrifugation at 40,000×g at 4° C. for 10 min. The membranes were washed by resuspension and centrifugation, resuspended, and incubated in the presence of 1 U/ml adenosine deaminase for 15-30 min. at 37° C. The membranes were diluted, centrifuged once, and resuspended to a final concentration of 0.5-2 mg protein/ml. Adenosine deaminase (0.1 U/ml) was included in the final resuspension. Assays were initiated by addition of membranes. The compounds of the present invention were subjected to the following experimental conditions: A1 determinations/incubated with [^3 H]CHA at room temperature for 2 hours, A2 determinations/incubated with [^3 H]NECA at room temperature for 1 hour. Assays were terminated by filtration, and the filters were counted in scintillation counters.

The target of test [2] is T2, adenosine A1 receptor (Cavia porcellus, UniProt P47745).
T2 construct: from tissue; host or cells: isolated guinea pig left atria
T2 sequence (P47745 1-326): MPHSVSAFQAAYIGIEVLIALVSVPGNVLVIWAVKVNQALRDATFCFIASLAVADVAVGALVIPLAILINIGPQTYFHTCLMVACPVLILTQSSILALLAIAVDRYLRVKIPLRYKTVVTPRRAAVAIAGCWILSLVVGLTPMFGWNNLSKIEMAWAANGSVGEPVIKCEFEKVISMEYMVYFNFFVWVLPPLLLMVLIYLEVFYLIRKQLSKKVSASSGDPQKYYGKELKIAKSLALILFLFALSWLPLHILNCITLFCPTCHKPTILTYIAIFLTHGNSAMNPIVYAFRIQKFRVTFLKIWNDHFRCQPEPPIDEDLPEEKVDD
Kind of test: Receptor affinity (radioligand binding), A1, [3H]CHA, guinea pig tissue. Conditions: room temperature, 2 hours, value obtained using guinea pig tissue. The method, then:
as §1, §2
*This value was obtained using guinea pig tissue.

For the next test, the target named is adenosine A2 receptor. Kind of test: Receptor affinity (radioligand binding), A2, [3H]NECA. Further details: species or system bovine / guinea pig. The note with it: room temperature, 1 hour. The method, then:
as §1, §2

Test [3] has as its target T2, adenosine A1 receptor. Description: A1 in vitro functional test: negative inotropic response, left atria, antagonism of NECA. The class given is cell-based, guinea pig. The note with it: for Selectivity Ratio (A2 KB /A1 KB): functional; for Kb: guinea pig left atria, electrically evoked twitch, NECA agonist, 31° C, Schild plot, read-out: A1 KB (antagonist dissociation constant). The method, then:
2. Adenosine--A1 /A2 In Vitro Functional Tests
(A1 Assay: Negative inotropic response)-Guinea pig left atria were placed in organ baths filled with Krebs Henseleit solution gassed with 95% O2 and 5% CO2 and maintained at a temperature of 31° C. An initial resting tension of 1 gm. was placed on each tissue, which was allowed to equilibrate. Atria were stimulated electrically to produce twitch responses. A dose-response curve for the inhibition of the electrically-evoked twitch response was obtained by cumulative addition of the adenosine agonist […]. After the washout of the tissue, a fixed concentration of test compound was added and the tissue allowed to equilibrate for 1 hr. before cumulative additions of the adenosine agonist 5'-N-ethylcarboxamidoadenosine (NECA) to generate a new dose response curve. This procedure was repeated with different fixed concentrations of test compounds to generate a family of dose response curves. Schild plots were constructed from the resultant concentration-effect curves, and KB (antagonist dissociation constant) values were obtained. The results (see Table VII) are expressed as KB values (concentration of test compound such that one-half of the tissue adenosine receptor population is occupied by the test compound).

Some results are limits rather than exact numbers.

In the case of `CC(C)N(C)c1nc2c(N[C@H]3C[C@H]4CC[C@@H]3C4)ncnc2n1C` (relative stereo) [Example 13, (±)-N^6-(endo-2'-norbornyl)-8-isopropylmethylamino-9-methyladenine], the “Selectivity Ratio (A2 Ki /A1 Ki)” value at adenosine A1 receptor [1] is 166. Further, the Ki was 6.31 nM on adenosine A1 receptor [2] and 1050 nM at adenosine A2 receptor. The “Selectivity Ratio (A2 KB /A1 KB)” value at adenosine A1 receptor [3] is listed as above 20000. In addition, the Kb at adenosine A1 receptor [3] was 5 nM.

For `Cn1cnc2c(NC3CCCCC3)ncnc21` [Example 47, N^6-cyclohexyl-9-methyladenine, reference compound], on adenosine A1 receptor [1], the inhibition constant (Ki) is 45.7 nM and the “Selectivity Ratio (A2 Ki /A1 Ki)” value is reported as 241. On adenosine A2 receptor, this compound came in with a Ki of 11000 nM. On adenosine A1 receptor [3], the “Selectivity Ratio (A2 KB /A1 KB)” value is on record as above 152 and the Kb was determined as 2080 nM.

As for `Cn1cnc2c(NC3CCCC3)ncnc21` [Example 48, N^6-cyclopentyl-9-methyladenine, reference compound], on adenosine A1 receptor [1], the Ki turned out to be 10 nM and the “Selectivity Ratio (A2 Ki /A1 Ki)” value turned out to be 501. Besides, the Ki on adenosine A2 receptor was found to be 5010 nM. Also, at adenosine A1 receptor [3], the “Selectivity Ratio (A2 KB /A1 KB)” value is above 395 and the Kb came out at 759 nM.

In general, Ki refers to the equilibrium dissociation constant of an inhibitor or competing ligand from its target. A lower Ki goes with higher affinity. A word on the Kb: it is the affinity of an antagonist, worked out from how it opposes an agonist.
